The values that follow come from article PMC3491360 (ACS medicinal chemistry letters, 2012).

By Ki is commonly meant a measure of affinity in units of concentration, obtained from inhibition or displacement.

Assay [1] addresses T1, hA3AR (Homo sapiens, UniProt P0DMS8).
T1 sequence (P0DMS8 1-318): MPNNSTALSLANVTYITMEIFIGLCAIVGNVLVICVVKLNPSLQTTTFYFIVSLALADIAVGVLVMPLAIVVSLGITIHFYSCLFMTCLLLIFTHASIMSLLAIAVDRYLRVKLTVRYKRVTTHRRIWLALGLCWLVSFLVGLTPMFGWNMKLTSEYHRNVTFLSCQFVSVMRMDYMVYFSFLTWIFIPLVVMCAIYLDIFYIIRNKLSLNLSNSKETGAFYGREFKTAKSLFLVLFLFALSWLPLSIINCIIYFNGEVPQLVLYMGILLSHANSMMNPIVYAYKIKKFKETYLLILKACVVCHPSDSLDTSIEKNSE
It is filed as cell-based. The following applies: in words, from cyclic AMP assay at 10 µM.

Assay [2] addresses T2, hA1AR (Homo sapiens, UniProt P30542).
T2 sequence (P30542 1-326): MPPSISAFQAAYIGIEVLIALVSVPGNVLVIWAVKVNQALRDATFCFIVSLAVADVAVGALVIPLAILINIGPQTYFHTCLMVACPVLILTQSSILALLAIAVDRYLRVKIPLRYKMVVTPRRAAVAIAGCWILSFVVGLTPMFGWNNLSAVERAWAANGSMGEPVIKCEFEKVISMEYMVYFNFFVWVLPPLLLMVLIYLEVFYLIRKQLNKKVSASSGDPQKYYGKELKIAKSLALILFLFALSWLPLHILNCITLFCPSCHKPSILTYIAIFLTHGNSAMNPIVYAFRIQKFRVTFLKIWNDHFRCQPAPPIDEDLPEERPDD
The note with it: read-out: Affinity (Ki) hA1; CHO cell membranes; ref Melman et al.[19]; cited from earlier work.

Assay [3] deals with hA2AAR (Homo sapiens, UniProt P29274). The following applies: read-out: Affinity (Ki) hA2A; HEK293 cell membranes; ref Melman et al.[19]; cited from earlier work.
Chain of hA2AAR (P29274 whole entry): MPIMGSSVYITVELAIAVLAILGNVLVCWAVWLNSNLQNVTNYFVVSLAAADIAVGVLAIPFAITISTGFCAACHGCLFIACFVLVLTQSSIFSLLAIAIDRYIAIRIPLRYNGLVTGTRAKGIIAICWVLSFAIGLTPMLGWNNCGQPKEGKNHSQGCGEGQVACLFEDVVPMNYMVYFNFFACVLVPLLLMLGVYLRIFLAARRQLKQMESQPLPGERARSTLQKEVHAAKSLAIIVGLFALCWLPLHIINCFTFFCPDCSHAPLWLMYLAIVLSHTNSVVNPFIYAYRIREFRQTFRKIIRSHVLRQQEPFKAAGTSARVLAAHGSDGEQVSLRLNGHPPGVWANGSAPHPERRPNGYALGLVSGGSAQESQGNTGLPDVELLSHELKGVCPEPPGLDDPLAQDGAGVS
For assay [4], the target named is T1, hA3AR. The note with it: at 10 µM, relative to 10 µM NECA (=100%); ref Melman et al.[19]; cited from earlier work.
The target in assay [5] is T1, hA3AR. The note with it: read-out: Affinity (Ki) hA3; CHO cell membranes; ref Melman et al.[19]; cited from earlier work.

Entries after “also recorded” stand apart in the source; their conditions may differ.

In the case of `CCNc1nc(C#Cc2ccccc2Cl)nc2c1ncn2[C@H]1[C@H](O)[C@H](O)[C@@H]2C[C@@H]21` [Compound 9], the “functional character at the hA3AR” value in assay [1] is listed as “antagonists”.

For `O[C@@H]1[C@H](O)[C@@H]2C[C@@H]2[C@H]1n1cnc2c(NCCc3ccccc3)nc(C#Cc3ccccc3)nc21` [Compound 15], in assay [1], the “functional character at the hA3AR” value was “selective antagonist; also recorded: antagonists”. Regarding `CNc1nc(C#Cc2ccccc2Cl)nc2c1ncn2[C@H]1[C@H](O)[C@H](O)[C@@H]2C[C@@H]21` [Compound 5], the “functional character at the hA3AR” value in assay [1] was “antagonists”. Still for that read-out and setting: under `CCNc1nc(C#Cc2ccccc2)nc2c1ncn2[C@H]1[C@H](O)[C@H](O)[C@@H]2C[C@@H]21` [Compound 8] stands “antagonists”; under `O[C@@H]1[C@H](O)[C@@H]2C[C@@H]2[C@H]1n1cnc2c(NCCc3ccccc3)nc(C#Cc3ccccc3Cl)nc21` [Compound 16], “low-efficacy partial agonists”. As for `OC1C(O)C(n2cnc3c(NCc4cccc(Cl)c4)nc(Cl)nc32)C2CC12` (stereo not shown) [Compound 2b], the Ki in assay [2] is 3070 nM; in assay [3] it was 4510 nM. Also, the “%Efficacy hA3” value in assay [4] is reported as 2.9±3.7%. `CONc1nc(C#Cc2ccccc2)nc2c1ncn2[C@H]1[C@H](O)[C@H](O)[C@@H]2C[C@@H]21` [Compound 6]: the “functional character at the hA3AR” value in assay [1] was “low-efficacy partial agonists”. For `O[C@@H]1[C@H](O)[C@@H]2C[C@@H]2[C@H]1n1cnc2c(NCc3cccc(Cl)c3)nc(C#Cc3ccccc3Cl)nc21` [Compound 12], the “functional character at the hA3AR” value in assay [1] was “low-efficacy partial agonists”. In the case of `CNC(=O)[C@@]12C[C@@H]1[C@@H](n1cnc3c(NCc4cccc(Cl)c4)nc(Cl)nc31)[C@H](O)[C@@H]2O` [Compound 1], in assay [3], the Ki was 2300 ± 100 nM.

Consider `O[C@@H]1[C@H](O)[C@@H]2C[C@@H]2[C@H]1n1cnc2c(NCc3cccc(I)c3)nc(Cl)nc21` [Compound 2a], for which, in assay [5], the inhibitory constant (Ki) was 1.44 nM. Also, the “%Efficacy hA3” value in assay [4] was 1.0±3.2%.
